Source: patent US8153773B2, “Synthesis and use of anti-reverse phosphorothioate analogs of the messenger RNA cap” (Board of Supervisors of Louisiana State University and …, priority 2007, dated 2012)

What was measured:
HC11 cells [1] = test: Polysomal distribution of capped luciferase mRNA in HC11 cells; format: cell-based, mouse; settings: HC11 cells lysed 4 h after electroporation, sucrose gradient
Experimental: To separate ribosomal subunits and initiation complexes, 4×10^6 HC11 cells were treated for 2 min with ice-cold PBS containing 0.1 mg/ml cycloheximide, washed twice with the same medium, and lysed in 600 μl of 0.3 M NaCl, 15 mM Tris-HCl (pH 7.6), 15 mM MgCl2, 1% Triton X-100, 1 mg/ml heparin, and 0.1 mg/ml cycloheximide. After centrifugation at 14,000×g for 10 min, the supernatant was layered on a 15-45% sucrose gradient in the same buffer but lacking Triton X-100 and centrifuged in a Beckman SW41 Ti rotor at 38,000 rpm at 4° C. for 2 h. Gradients were fractionated with continuous monitoring of absorbance at 260 nm. RNA from each fraction (1 ml) was isolated and analyzed by real time PCR.
We used an independent method to validate the observation that m2^7,2′-OGppspG-capped mRNAs were translated more efficiently, namely, their polysomal distribution (FIGS. 9A-9E). An increase in the rate of initiation relative to elongation or termination results in a shift of the mRNA from lighter to heavier polysomes. See H. Lodish, “Model for the regulation of mRNA translation applied to haemoglobin synthesis,” Nature, vol. 251, pp. 385-388 (1974). The type of cap structure is not expected to affect the rate of elongation. Thus, a shift to higher polysomes indicates faster initiation.
Luc A60 mRNA capped with m^7 Gp3G, m2^7,2′-OGp3G or m2^7,2′-OGppspG (D2) was electroporated into HC11 cells. […]

[2] = tested on: rabbit reticulocyte lysate; test: Cell-free translation of capped Luc-A60 mRNA in the rabbit reticulocyte lysate system; format: biochemical; settings: data not shown
From the text: Luc-A60 mRNA capped with m2^7,2′-OGppspG (D1) and m2^7,2′-OGppspG (D2) was translated 2.8- and 5.1-fold more efficiently than m^7Gp3G-capped mRNA, respectively (FIG. 8 and Table 2). For cell-free translation in the rabbit reticulocyte lysate system, Luc-A60 mRNAs capped with m2^7,2′-OGppspG (D1) and m2^7,2′-OGppspG (D2) were translated only 2.3-fold more efficiently than Luc-A60 mRNA capped with m^7Gp3G (data not shown).

HC11 cells [3] = test: Time course of luciferase expression after nucleoporation of HC11 cells; format: cell-based, mouse; settings: luciferase activity up to 10 h after nucleoporation, normalized for Luc-A60 delivered
Experimental: Two methods, electroporation and nucleoporation, were used to deliver RNA into cells. In case of electroporation, 5 μg of RNA were introduced into 10^7 HC11 cells in a total volume 400 μl of serum-reduced RPMI 1640 medium in a Gene pulser cuvette (4 mm gap) with a Bio-Rad Genepulser™ set at 0.22 kV and 960 μF. Following discharge, the cells were washed twice with PBS, centrifuged for 2 min 300×g at room temperature, resuspended in prewarmed complete medium, and placed at 37° C. Nucleoporation was performed with an Amaxa Nucleofector II (Amaxa Biosystems) in accordance with manufacture's recommendations. One microgram of RNA was introduced into 10^6 HC11 cells with Nucleofector Solution V and the set of recommended regimens (program T-024).
For cytoplasmic RNA extraction, 2×10^5 cells were lysed in 175 μl of lysis buffer (50 mM Tris-HCl, pH 8.0, 140 mM NaCl, 1.5 mM MgCl2, 0.5% (v/v) Igepal (Sigma), and 1 mM dithiothreitol). […] Luciferase activity of cell extracts was measured according to the manufacturer's protocol (Promega).
We also determined the overall accumulation of luciferase, as measured by its enzymatic activity, as a function of time for mRNAs capped with m2^7,2′-OGp3G, m2^7,2′-OGppspG (D1), and m2^7,2′-OGppspG (D2). […] Luciferase activity measured in the supernatant was normalized for the amount of Luc-A60 delivered into the cells. […]

Row | Molecule | polysomal distribution of capped Luc A60 mRNA (HC11 cells [1]) | translational efficiency relative to m^7Gp3G-capped Luc-A60 mRNA [2] | overall accumulation of luciferase (HC11 cells [3])
1 | CO[C@@H]1[C@H](O)[C@@H](COP(=O)(O)OP(=O)([O-])OP(=O)(O)OC[C@H]2O[C@@H](n3cnc4c(=O)[nH]c(N)nc43)[C@H](O)[C@@H]2O)O[C@H]1n1c[n+](C)c2c(O)nc(N)nc21 [m2^7,2′-OGpppG, reference compound] | shifted to higher polysomes |  | 
2 | m2^7,2′-OGppspG (D1) [Compound 5a] |  | 2.3 fold | 
3 | m2^7,2′-OGppspG (D2) [Compound 5b] | shifted to even higher polysomes | 2.3 fold | The most luciferase accumulated
